Laboratory results published in patent US8962630B2, “Pyrrolopyrimidine compounds and their uses” (Novartis AG, priority 2008, dated 2015).
pIC50: −log10 of the molar value. Like-named read-outs stand apart in the source and are kept apart here.

Columns and labels:
Type in all cases: biochemical
CDK4/cyclin D1 = CDK4/cyclin D1 (Homo sapiens (Human), UniProt P11802); assay: CDK4/Cyclin D1 enzymatic activity assay (Lance TR-FRET); settings: for pIC50: Table 2, 3 μM ATP, read-out: CDK4
Protocol: A 384-well microtiter Lance TR-FRET (time-resolved-fluorescence energy transfer) endpoint assay was used for CDK4/cyclin D1 kinase activity measurements. The same assay was used for IC50 determination of small molecule inhibitors. In general, the kinase reactions were carried out in 30 μL volumes in the reaction solution containing the following: 2 uL compound (in […]), 18 uL CDK4/cyclin D1 in Assay Buffer (50 mM HEPES, pH 7.5, 5 mM MgCl2, 2 mM MnCl2, 1 mM DTT, 0.05% BSA, 0.02% Tween-20), 10 uL of the mixture of pRb152 and ATP. The final reaction mixture contains compound (inhibitor) with the concentration varying from 0.005-10 μM, 2% DMSO, 0.3 nM CDK4/cyclin D1, 175 nM pRb152, and 3 μM ATP (Amersham Pharmacia, Cat. No. 27-2056-01). All reactions were run at room temperature in 384-well white flat-bottom OptiPlates (Perkin Elmer, Cat. No. 6007290) for 60 min then were quenched by the addition of 10 μL of 120 mM EDTA. The signals were captured by the addition of 40 μL of the Detection Solution containing the following: Detection Buffer (50 mM HEPES, pH 7.5, 30 mM EDTA, 0.1% Triton x-100, 0.05% BSA), 70 ng/mL anti-phospho-pRb(S780) (Cell Signaling Technology, Cat. No. 9307S), 1 nM Lance Eu-W1024-Rabbit anti-IgG (Perkin Elmer, Cat. No. AD0082), and 20 nM SureLight™ Allophycocyanin-Streptavidin (Perkin Elmer, Cat. No. CR130-100). The resulted solutions were incubated at room temperature for 2 hours before read on the Evision Multilabel Reader (Perkin Elmer, Envision 2102-0010).
CDk4/cyclin D1 recombinant protein used in the enzymatic activity assay was prepared by coexpressing pDEST10-CDK4 (N-terminal His6) and pFastBacDual-GST-hCyclinDl viruses in Sf21 cells.

CDK1/cyclin B = CDK1/cyclin B (Homo sapiens (Human), UniProt P06493); assay: CDK1/Cyclin B enzymatic activity assay (IMAP-FP); settings: for pIC50: Table 2, 20 μM ATP, read-out: CDK1
Excerpt: A 384-well microtiter IMAP-FPT™ (Molecular Devices Trade Mark Technology) endpoint assay was used for CDK1/cyclin B kinase activity measurements. The same assay was used for IC50 determination of small molecule inhibitors.

CDK2/cyclin A = CDK2/cyclin A (Homo sapiens (Human), UniProt P24941); assay: CDK2/Cyclin A enzymatic activity assay (IMAP-FP); settings: for pIC50: Table 2, read-out: CDK2

CDK1/cyclin B, sequence (P06493 whole entry, species assumed): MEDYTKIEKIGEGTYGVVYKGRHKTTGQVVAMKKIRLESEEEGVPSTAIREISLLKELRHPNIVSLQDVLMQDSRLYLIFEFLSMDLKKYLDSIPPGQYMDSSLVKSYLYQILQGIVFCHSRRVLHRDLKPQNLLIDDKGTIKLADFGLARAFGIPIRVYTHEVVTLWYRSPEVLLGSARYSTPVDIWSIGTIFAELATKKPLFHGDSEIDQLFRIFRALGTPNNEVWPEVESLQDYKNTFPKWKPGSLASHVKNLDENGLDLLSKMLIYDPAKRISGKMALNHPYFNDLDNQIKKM
CDK1/cyclin B, sequence (P14635 whole entry partner, species assumed): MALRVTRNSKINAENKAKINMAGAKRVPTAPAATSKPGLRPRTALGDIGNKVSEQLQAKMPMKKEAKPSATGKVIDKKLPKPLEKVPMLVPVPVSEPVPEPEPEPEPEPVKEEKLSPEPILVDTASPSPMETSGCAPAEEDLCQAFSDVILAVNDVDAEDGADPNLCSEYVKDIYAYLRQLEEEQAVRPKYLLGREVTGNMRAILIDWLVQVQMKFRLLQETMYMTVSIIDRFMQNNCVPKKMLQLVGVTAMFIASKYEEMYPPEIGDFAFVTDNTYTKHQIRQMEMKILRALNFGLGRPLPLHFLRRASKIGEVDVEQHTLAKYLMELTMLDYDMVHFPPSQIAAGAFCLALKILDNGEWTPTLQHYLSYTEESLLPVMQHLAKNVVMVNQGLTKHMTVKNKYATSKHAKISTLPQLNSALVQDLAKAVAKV
CDK4/cyclin D1, sequence (P11802 whole entry): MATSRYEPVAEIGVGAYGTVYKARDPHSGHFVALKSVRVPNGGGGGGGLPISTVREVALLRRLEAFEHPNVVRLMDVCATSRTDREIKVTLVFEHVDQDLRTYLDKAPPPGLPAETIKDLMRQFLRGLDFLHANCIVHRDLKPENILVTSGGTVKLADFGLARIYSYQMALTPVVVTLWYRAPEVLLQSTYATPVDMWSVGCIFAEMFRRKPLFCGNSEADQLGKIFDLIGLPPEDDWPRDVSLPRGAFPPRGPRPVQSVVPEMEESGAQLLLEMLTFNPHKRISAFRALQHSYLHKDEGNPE
CDK4/cyclin D1, sequence (P24385 whole entry partner): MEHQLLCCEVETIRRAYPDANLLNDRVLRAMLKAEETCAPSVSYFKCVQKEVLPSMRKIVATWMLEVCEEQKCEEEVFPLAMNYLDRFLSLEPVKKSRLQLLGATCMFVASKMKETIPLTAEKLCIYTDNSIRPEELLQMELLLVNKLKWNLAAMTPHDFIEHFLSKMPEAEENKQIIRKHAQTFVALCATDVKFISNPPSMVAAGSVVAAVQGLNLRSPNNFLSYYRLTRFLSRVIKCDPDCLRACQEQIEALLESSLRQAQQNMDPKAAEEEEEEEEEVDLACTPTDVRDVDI

SMILES	pIC50 (CDK4/cyclin D1)	pIC50 (CDK1/cyclin B)	pIC50 (CDK2/cyclin A)	IC50 (CDK4/cyclin D1; Table 4, read-out: IC50 (μM) CDK4)	IC50 (CDK1/cyclin B; Table 4, read-out: IC50 (μM) CDK1)	IC50 (CDK2/cyclin A; Table 4, read-out: IC50 (μM) CDK2)
C[C@@H]1CN(c2ccc(Nc3ncc4cc(C(=O)N(C)C)n(C5CCCC5)c4n3)nc2)CCN1 [Example 16, 7-Cyclopentyl-2-[5-((R)-3-methyl-piperazin-1-yl)-pyridin-2-ylamino]-7H-pyrrolo[2,3-d]pyrimidine-6-carboxylic acid dimethylamide]	8.00 to 9.00	< 4.82	< 4.82			
CNC(=O)c1cc2cnc(Nc3ccc(N4CCN(C(C)C)CC4)cn3)nc2n1C1CCCC1 [Example 51, 7-Cyclopentyl-2-[5-(4-isopropyl-piperazin-1-yl)-pyridin-2-ylamino]-7H-pyrrolo[2,3-d]pyrimidine-6-carboxylic acid methylamide]	7.00 to 8.00	< 4.82	< 4.82			
CN(C)C(=O)c1cc2cnc(Nc3ccc(N4CCNC(C)(C)C4)cn3)nc2n1C1CCCC1 [Example 72, 7-Cyclopentyl-2-[5-(3,3-dimethyl-piperazin-1-yl)-pyridin-2-ylamino]-7H-pyrrolo[2,3-d]pyrimidine-6-carboxylic acid dimethylamide]	7.00 to 8.00	< 4.82	< 4.82			
CN(C)C(=O)c1cc2cnc(Nc3ccc(N4CCN(C(=O)OC(C)(C)C)CC4)nn3)nc2n1C1CCCC1 [Example 45, 4-[6-(7-Cyclopentyl-6-dimethylcarbamoyl-7H-pyrrolo[2,3-d]pyrimidin-2-ylamino)-pyridazin-3-yl]-piperazine-1-carboxylic acid tert-butyl ester]	6.00 to 7.00	< 4.82	4.70			
CN(C)C(=O)c1cc2cnc(Nc3ccc(CN4CCN(C)C(=O)C4)cn3)nc2n1C1CCCC1 [Example 60, 7-Cyclopentyl-2-[5-(4-methyl-3-oxo-piperazin-1-ylmethyl)-pyridin-2-ylamino]-7H-pyrrolo[2,3-d]pyrimidine-6-carboxylic acid dimethylamide]	6.00 to 7.00	< 4.82	< 4.82			
CN(C)C(=O)c1cc2cnc(Nc3ccc(CN4CC(O)C4)cn3)nc2n1C1CCCC1 [Example 10A, 7-Cyclopentyl-2-[5-(3-hydroxy-azetidin-1-ylmethyl)-pyridin-2-ylamino]-7H-pyrrolo[2,3-d]pyrimidine-6-carboxylic acid dimethylamide]	7.00 to 8.00	4.92	4.85			
C[C@H]1CN(c2ccc(Nc3ncc4cc(C(=O)N(C)C)n(C5CCCC5)c4n3)nc2)CCN1C(=O)OC(C)(C)C [Example 31, (S)-4-[6-(7-Cyclopentyl-6-dimethylcarbamoyl-7H-pyrrolo[2,3-d]pyrimidin-2-ylamino)-pyridin-3-yl]-2-methyl-piperazine-1-carboxylic acid tert-butyl ester]	6.00 to 7.00	< 4.82	< 4.82			
CN(C)C(=O)c1cc2cnc(Nc3ccc(N4CCN(C[C@H](O)CO)CC4)cn3)nc2n1C1CCCC1 [Example 29, 7-Cyclopentyl-2-{5-[4-((S)-2,3-dihydroxy-propyl)-piperazin-1-yl]-pyridin-2-ylamino}-7H-pyrrolo[2,3-d]pyrimidine-6-carboxylic acid dimethylamide]	7.00 to 8.00	4.82	< 4.82			
CN(C)C(=O)c1cc2cnc(Nc3ccc(N4CCN(C[C@@H](O)CO)CC4)cn3)nc2n1C1CCCC1 [Example 46, 7-Cyclopentyl-2-{5-[4-((R)-2,3-dihydroxy-propyl)-piperazin-1-yl]-pyridin-2-ylamino}-7H-pyrrolo[2,3-d]pyrimidine-6-carboxylic acid dimethylamide]	7.00 to 8.00	< 4.82	< 4.82			
CN(C)C(=O)c1cc2cnc(Nc3ccc(C4CCNCC4)cn3)nc2n1C1CCCC1 [Example 52, 7-Cyclopentyl-2-(1′,2′,3′,4′,5′,6-hexahydro-[3,4]bipyridinyl-6-ylamino)-7H-pyrrolo[2,3-d]pyrimidine-6-carboxylic acid dimethylamide]	7.00 to 8.00	< 4.82	< 4.82			
CN(C)C(=O)c1cc2cnc(Nc3ccc(N4CCN(CC5CCCCC5)CC4)cn3)nc2n1C1CCCC1 [Example 69, 2-[5-(4-Cyclohexylmethyl-piperazin-1-yl)-pyridin-2-ylamino]-7-cyclopentyl-7H-pyrrolo[2,3-d]pyrimidine-6-carboxylic acid dimethylamide]	7.00 to 8.00	< 4.82	< 4.82			
C[C@@H](O)CN1CCN(c2ccc(Nc3ncc4cc(C(=O)N(C)C)n(C5CCCC5)c4n3)nc2)CC1 [Example 57, 7-Cyclopentyl-2-{5-[4-((R)-2-hydroxy-propyl)-piperazin-1-yl]-pyridin-2-ylamino}-7H-pyrrolo[2,3-d]pyrimidine-6-carboxylic acid dimethylamide]	7.00 to 8.00	< 4.82	< 4.82			
CN(C)C(=O)c1cc2cnc(Nc3ccc(N4CCN(C(=O)CCC5CCCC5)CC4)cn3)nc2n1C1CCCC1 [Example 91, 7-Cyclopentyl-2-{5-[4-(3-cyclopentyl-propionyl)-piperazin-1-yl]-pyridin-2-ylamino}-7H-pyrrolo[2,3-d]pyrimidine-6-carboxylic acid dimethylamide]	7.00 to 8.00	< 4.82	< 4.82			
CN(C)C(=O)c1cc2cnc(Nc3ccc(N4CCC(CCO)CC4)cn3)nc2n1C1CCCC1 [Example 35, 7-Cyclopentyl-2-[4-(2-hydroxy-ethyl)-3,4,5,6-tetrahydro-2H-[1,3′]bipyridinyl-6′-ylamino]-7H-pyrrolo[2,3-d]pyrimidine-6-carboxylic acid dimethylamide]	7.00 to 8.00	5.33	5.54			
CN(C)C(=O)c1cc2cnc(Nc3ccc(N4CCN(CC(C)(C)O)CC4)cn3)nc2n1C1CCCC1 [Example 71, 7-Cyclopentyl-2-{5-[4-(2-hydroxy-2-methyl-propyl)-piperazin-1-yl]-pyridin-2-ylamino}-7H-pyrrolo[2,3-d]pyrimidine-6-carboxylic acid dimethylamide]	7.00 to 8.00	< 4.82	< 4.82			
CN(C)C(=O)c1cc2cnc(Nc3ccc(N4CCCNCC4)cn3)nc2n1C1CCCC1 [Example 8, 7-Cyclopentyl-2-(5-[1,4]diazepan-1-yl-pyridin-2-ylamino)-7H-pyrrolo[2,3-d]pyrimidine-6-carboxylic acid dimethylamide]	7.00 to 8.00	4.85	5.10			
C[C@H](CO)NCc1ccc(Nc2ncc3cc(C(=O)N(C)C)n(C4CCCC4)c3n2)nc1 [Example 66, 7-Cyclopentyl-2-{5-[((R)-2-hydroxy-1-methyl-ethylamino)-methyl]-pyridin-2 lamino}-7H-pyrrolo[2,3-d]pyrimidine-6-carboxylic acid dimethylamide]	7.00 to 8.00	< 4.82	< 4.82			
CN(C)C(=O)c1cc2cnc(Nc3ccc(N4CCN(CCO)CC4)cn3)nc2n1C1CCCC1 [Example 26, 7-Cyclopentyl-2-{5-[4-(2-hydroxy-ethyl)-piperazin-1-yl]-pyridin-2-ylamino}-7H-pyrrolo[2,3-d]pyrimidine-6-carboxylic acid dimethylamide]	7.00 to 8.00	< 4.82	< 4.82	0.026 µM	> 15 µM	> 15 µM
CN1CCN(Cc2ccc(Nc3ncc4cc(C(=O)N(C)C)n(C5CCCC5)c4n3)nc2)CC1 [Example 43, 7-Cyclopentyl-2-[5-(4-methyl-piperazin-1-ylmethyl)-pyridin-2-ylamino]-7H-pyrrolo[2,3-d]pyrimidine-6-carboxylic acid dimethylamide]	7.00 to 8.00	< 4.82	< 4.82			
CN(C)C(=O)c1cc2cnc(Nc3ccc(CN4CC5CCC(C4)N5)cn3)nc2n1C1CCCC1 [Example 73, 7-Cyclopentyl-2-[5-(3,8-diaza-bicyclo[3.2.1]oct-3-ylmethyl)-pyridin-2-ylamino]-7H-pyrrolo[2,3-d]pyrimidine-6-carboxylic acid dimethylamide]	7.00 to 8.00					
CN(C)C(=O)c1cc2cnc(Nc3ccc(N4CCNCC4=O)cn3)nc2n1C1CCCC1 [Example 109, 7-cyclopentyl-2-[5-(2-oxopiperazin-1-yl)pyridin-2-ylamino]-7H-pyrrolo[2,3-d]pyrimidine-6-carboxylic acid dimethylamide]	6.00 to 7.00					
